Assays:
[1] = Polarity of lipids and oils: interfacial tension towards water; format: physicochemical
Text: It has already been proposed to adopt interfacial tension towards water as a measure of the polarity index of an oil or of an oil phase. This means that the greater the polarity of the oil phase in question, the lower the interfacial tension between this oil phase and water. According to the invention, the interfacial tension is regarded as being one possible measure of the polarity of a given oil component.

[2] = cited from earlier work

Polarity ([1]; mid-polar lipids) [mN/m]	Compound	other results
–	CCCCCCCC(=O)OC(=O)OC(=O)CCCCCCC [Cetiol CC, Dicaprylyl Carbonate]	Polarity ([1]; nonpolar lipids): 31.7 mN/m
–	C=CC(C)(C)c1cc(/C=C/C(=O)c2ccc(O)cc2)c(OC)cc1O [licochalcone A]	solubility [2]: sparingly soluble
28.5	Cyclomethicone [DC Fluid 345]	Polarity ([1]; silicone oils): 28.5 mN/m
28.5	Cyclopolydimethylsiloxan [Dow Corning Fluid 244]	–
22.7	Phenyltrimethicone [Silicone oil VP 1120]	–

Source: patent US11497942B2, “Cosmetic or dermatological preparation comprising a combination of a dye and an anti-inflammatory active ingredient” (BEIERSDORF AG, priority 2003, dated 2022)
